Data reported in publication PMC6278453, “Effects of Osthol Isolated from Cnidium monnieri Fruit on Urate Transporter 1” (Molecules, 2018).
Each block holds one molecule with its values, some of them ahead of it.

Columns and labels:
Format in all cases: cell-based
[1] = biological target: T1, urate transporter 1 (URAT1) (Homo sapiens, UniProt Q96S37); test: [[…]-14C]uric acid uptake in URAT1-transfected HEK293/PDZK1 cells, mock-subtracted; Lineweaver-Burk kinetics
T1 construct: gene SLC22A12; human URAT1 cDNA in pCMV-SPORT6, transiently transfected into HEK293/PDZK1 cells
T1 sequence (Q96S37 1-553): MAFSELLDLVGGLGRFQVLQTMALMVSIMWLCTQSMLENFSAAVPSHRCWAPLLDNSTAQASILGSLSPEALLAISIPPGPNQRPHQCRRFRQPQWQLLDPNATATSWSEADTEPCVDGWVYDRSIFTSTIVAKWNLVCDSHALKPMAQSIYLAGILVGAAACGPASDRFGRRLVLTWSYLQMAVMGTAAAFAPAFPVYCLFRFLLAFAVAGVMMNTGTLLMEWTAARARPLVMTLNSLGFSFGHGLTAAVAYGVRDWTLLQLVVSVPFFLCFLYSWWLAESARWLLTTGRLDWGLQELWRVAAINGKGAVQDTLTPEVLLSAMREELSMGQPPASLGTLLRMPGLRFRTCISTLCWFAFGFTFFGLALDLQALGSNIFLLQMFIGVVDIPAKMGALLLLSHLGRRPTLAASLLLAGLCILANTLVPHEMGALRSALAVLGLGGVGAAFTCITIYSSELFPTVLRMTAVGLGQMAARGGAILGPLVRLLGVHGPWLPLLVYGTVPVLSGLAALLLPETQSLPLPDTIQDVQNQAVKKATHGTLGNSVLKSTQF

[2] = biological target: T1, urate transporter 1 (URAT1); test: [[…]-14C]uric acid uptake in URAT1-transfected HEK293/PDZK1 cells, single concentration […]; settings: read-out: Urate Uptake (% of Control)
[3] = biological target: T1, urate transporter 1 (URAT1); test: radiolabelled uptake, […], Lineweaver-Burk plot

Structure (SMILES): COc1ccc2ccc(=O)oc2c1CC=C(C)C [compound 1, osthol]
IC50 [1]: 78.8 µM

remaining activity at 100 µM [2]: 31 ± 4%
Structure (SMILES): CC(C)=CCc1c(O)ccc2ccc(=O)oc12 [osthenol]

Structure (SMILES): O=c1[nH]c(=O)c2[nH]c(=O)[nH]c2[nH]1 [uric acid]
radiolabelled uptake, 25-200 μM, Lineweaver-Burk plot [3]: The uptakes of uric acid into the cells (V) were measured, and a Lineweaver–Burk plot was made.
